Common to all, as to format: biochemical
Settings in all cases: n = 3

The target of one experiment is T1, GECFINDER-Phe1 (Aneurinibacillus migulanus, UniProt P0C061).
T1 construct: gene grsA; GrsA-PheA-PCP; cpEGFP inserted in hinge B, linkers CC-DR
As to the kind of experiment: Fluorescence dose-response of purified cpEGFP sensors (0.75 uM) in 100 mM Tris-HCl pH 7.5, room temperature, 1 mM ATP, 2.5 mM MgCl2; excitation 400, 460 or 480 nm by sensor, emission 510 nm; logistic five-parameter fit. The method, then:
(§1) Fig. 3 Dose–response curves and fluorescence spectrums of […]s. a, c, e, g, i, k Dose–response curve of purified […]s with increasing concentrations of ligand in 100 mM Tris-HCl buffer (pH=7.5). The normalized ΔF/F0 value increased after ligand binding. All data shown are mean ± S.D. (n = 3 biologically independent samples). b, d, f, h, j, l The fluorescence spectra of […]s changed as the ligand concentration increased. All data shown are mean ± S.D. (n = 3 biologically independent samples). Source data are provided as a Source data file.
(§2) The study conducted dose–response curve, substrate specificity, and fluorescent spectrum analyses in 100-mM Tris buffer (pH = 7.5), while pH stability experiments were performed in 100-mM Tris buffer at three different pH values (6.5, 7.5, and 8.5) at room temperature. […] protein at a concentration of 0.75 μM, various small molecule concentrations, 1 mM ATP, and 2.5 mM MgCl2 were used in the experiments. Fluorescent signals were detected using a Microplate Reader (Synergy H4, Bio Tek) at an excitation/emission wavelength of 460 nm/510 nm or 480 nm/510 nm. The dose-response curve was determined immediately after the addition of the analyte. The total duration of the measurement was 15 min, with readings taken at one-minute intervals. The dose-response curve was plotted using the fluorescence values obtained after achieving stability in the fluorescence signal. The dose-response curves were fitted using the logistic model LOGISTIC5 available in Origin 2021, which could provide a more adequate fit to asymmetric dose-response data[62],[63]. Excitation spectra were scanned from 300 to 540 nm with a step size of 5 nm, and the emission wavelength was set to 560 nm. Emission spectra were scanned from 470 to 700 nm with a step size of 5 nm, and the excitation wavelength was set to 450 nm. The thermal stability of […] was analyzed using the UNcle multifunctional protein stability analysis system. Measurements were performed in 20 mM MOPS buffer with 2 mM DTT at a sample concentration of 1 mg/mL. Absolute fluorescence quantum yields were measured using an absolute photoluminescence quantum yield spectrometer (FS5, Edinburgh).

A further experiment concerns the target T2, GECFINDER-Phe2 (Aneurinibacillus migulanus, UniProt P0C061).
T2 construct: gene grsA; GrsA-PheA-PCP; cpEGFP inserted in hinge B, linkers CV-LL
Described as above. How it is done:
as §1, §2

The target of a further experiment is T3, GECFINDER-Phe3 (Aneurinibacillus migulanus, UniProt P0C061).
T3 construct: gene grsA; GrsA-PheA-PCP; cpEGFP inserted in hinge B, linkers VF-QS
T3 sequence (P0C061 1-617): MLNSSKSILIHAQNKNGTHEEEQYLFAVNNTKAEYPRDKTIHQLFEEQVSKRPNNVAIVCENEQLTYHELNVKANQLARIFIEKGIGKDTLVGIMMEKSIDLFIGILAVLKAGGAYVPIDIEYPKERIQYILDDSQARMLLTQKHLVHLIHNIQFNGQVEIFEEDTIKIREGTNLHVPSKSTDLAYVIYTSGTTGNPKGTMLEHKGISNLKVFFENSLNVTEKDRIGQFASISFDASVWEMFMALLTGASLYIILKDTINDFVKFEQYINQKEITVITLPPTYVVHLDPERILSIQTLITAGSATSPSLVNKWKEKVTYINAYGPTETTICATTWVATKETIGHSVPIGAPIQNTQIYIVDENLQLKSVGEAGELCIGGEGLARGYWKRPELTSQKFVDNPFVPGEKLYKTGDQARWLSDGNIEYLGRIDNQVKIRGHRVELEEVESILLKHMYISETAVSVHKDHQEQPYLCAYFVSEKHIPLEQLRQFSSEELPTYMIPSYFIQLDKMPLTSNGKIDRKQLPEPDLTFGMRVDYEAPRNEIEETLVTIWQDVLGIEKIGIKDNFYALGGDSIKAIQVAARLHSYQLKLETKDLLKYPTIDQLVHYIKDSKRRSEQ
The experiment is described as above. The method, then:
as §1, §2

The next experiment addresses T4, GECFINDER-Leu2 (Aneurinibacillus migulanus, UniProt P0C061, A301G/I277L/T278L).
T4 construct: gene grsA
In words: Fluorescence dose-response of purified binding-pocket-engineered sensors (0.75 uM) in 100 mM Tris-HCl pH 7.5, room temperature, 1 mM ATP, 2.5 mM MgCl2, excitation 460 or 480 nm, emission 510 nm; logistic five-parameter fit. The method, then: (§3) Fig. 4 Engineering ligand specificity of GrsA-PheA for generating […]s. a The selectivity-conferring code of Phe and Leu A domains. b–f Dose–response curve of purified […]s with increasing concentrations of ligands in 100 mM Tris-HCl buffer (pH=7.5). All data shown are means ± S.D. (n = 3 biologically independent samples). g A series of […] reactions was tested to show the […]’s specificity with 20 proteinogenic amino acids. The values on the heatmap represent the ΔF/F0 value normalized to each […]’s maximal ΔF/F0 value ((ΔF/F0)/maximal ΔF/F0). The concentrations of 20 amino acids were 100 μM. The color indicates the average value of three independent biological replicates after 15 min. All data shown are means ± S.D. (n = 3 biologically independent samples). Source data are provided as a Source data file.
as §2

Another experiment addresses T5, GECFINDER-Leu3 (Aneurinibacillus migulanus, UniProt P0C061, A301G/S447N/T278L).
T5 construct: gene grsA
The experiment is described as above. How it is done:
as §3, §2

The next experiment concerns the target T6, GECFINDER-Leu4 (Aneurinibacillus migulanus, UniProt P0C061, A301G/I277L/S447N/T278L).
T6 construct: gene grsA
The description is as above. How it is done:
as §3, §2

A further experiment addresses GECFINDER-SβF. The experiment is described as above. The method, then:
as §3, §2

For a further experiment, the target named is T7, GECFINDER-Tyr (Aneurinibacillus migulanus, UniProt P0C061, W239S).
T7 construct: gene grsA
The experiment is described as above. The method, then:
as §3, §2

We go through one compound from PMC10590383, “Repurposing conformational changes in ANL superfamily enzymes to rapidly generate biosensors for organic and amino acids” (Nature Communications, 2023).

As for `N[C@@H](Cc1ccccc1)C(=O)O` [Phe, phenylalanine], the EC50 turned out to be 1.55 ± 0.23 µM at GECFINDER-Phe1; 1.47 ± 0.15 µM at GECFINDER-Phe2; 1.91 ± 0.08 µM at GECFINDER-Phe3; 606 ± 407 µM at GECFINDER-Leu2; 392 ± 51.8 µM at GECFINDER-Leu3; 158 ± 22.6 µM on GECFINDER-Leu4. Besides, the EC50 at GECFINDER-SβF came to 234 ± 23.7 µM; on GECFINDER-Tyr, 258 ± 37.3 µM.
